Reference: US9024017B2, “Octahydro-cyclopentapyrrolyl antagonists of CCR2” (Janssen Pharmaceutica NV, priority 2012, dated 2015)

target: T1, CCR2 (Homo sapiens, UniProt P41597); test: MCP-1 Receptor Binding Assay in THP-1 Cells; settings: read-out: MCP1B_v3 IC50
T1 construct: host or cells: THP-1 (human monocytic cell line)
Experimental: Compounds of the invention were subjected to various representative biological tests. […] MCP-1 Receptor Binding Assay in THP-1 Cells Human monocytic cell line THP-1 cells were obtained from American Type Culture Collection (Manassas, Va., USA). The THP-1 cells were grown in RPMI-1640 (RPMI: Roswell Park Memorial Institute Medium-cell culture growth media) supplemented with 10% fetal bovine serum in a humidified 5% CO2 atmosphere at 37° C. The cell density was maintained between […].
THP-1 (cells were incubated with 0.5 nM ^125I labeled MCP-1 (Perkin-Elmer Life Sciences, Inc. Boston, Mass.) in the presence of varying concentrations of either unlabeled MCP-1 (R & D Systems, Minneapolis, Minn.) or test compound for 2 hours at 30° C. in a 96 well plate. Cells were then harvested onto a filter plate, dried, and 20 μL of Microscint 20 was added to each well. Plates were counted in a TopCount NXT, Microplate Scintillation & Luminescence Counter (Perkin-Elmer Life Sciences, Inc. Boston, Mass.). Blank values (buffer only) were subtracted from all values and drug treated values were compared to vehicle treated values. 1 μM cold MCP-1 was used for nonspecific binding.

T1 sequence (P41597 whole entry): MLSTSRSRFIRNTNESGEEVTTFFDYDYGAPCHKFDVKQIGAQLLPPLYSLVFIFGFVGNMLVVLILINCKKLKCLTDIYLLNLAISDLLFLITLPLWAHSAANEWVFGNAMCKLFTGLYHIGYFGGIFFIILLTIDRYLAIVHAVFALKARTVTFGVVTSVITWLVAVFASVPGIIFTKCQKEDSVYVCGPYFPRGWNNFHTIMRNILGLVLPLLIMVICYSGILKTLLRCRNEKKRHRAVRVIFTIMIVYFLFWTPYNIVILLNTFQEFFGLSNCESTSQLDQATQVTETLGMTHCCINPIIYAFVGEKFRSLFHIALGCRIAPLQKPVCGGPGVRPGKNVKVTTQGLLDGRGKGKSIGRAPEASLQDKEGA

SMILES	IC50 [nM]
COC1COCCC1N[C@@H]1C[C@H]2CN(C(=O)NCC(C)(C)C)C[C@@]2(C(=O)N2CCc3ncc(C(F)(F)F)cc3C2)C1 (relative stereo) [Example 18, (3aR,5R,6aR)-5-(((3S*,4S*)-3-Methoxytetrahydro-2H-pyran-4-yl)amino)-N-neopentyl-3a-(3-(trifluoromethyl)-5,6,7,8-tetrahydro-1,6-naphthyridine-6-carbonyl)hexahydrocyclopenta[c]pyrrole-2(1H)-carboxamide]	410
C#CC(=O)N1C[C@@H]2C[C@@H](NC3CCOCC3OC)C[C@]2(C(=O)N2CCc3ncc(C(F)(F)F)cc3C2)C1 (relative stereo) [Example 73, 1-((3aR,5R,6aR)-5-(((3S*,4S*)-3-Methoxytetrahydro-2H-pyran-4-yl)amino)-3a-(3-(trifluoromethyl)-5,6,7,8-tetrahydro-1,6-naphthyridine-6-carbonyl)hexahydrocyclopenta-[c]pyrrol-2(1H)-yl)prop-2-yn-1-one]	360
COC1COCCC1N[C@@H]1C[C@H]2CN(C(=S)NCc3ccccc3)C[C@@]2(C(=O)N2CCc3ncc(C(F)(F)F)cc3C2)C1 (relative stereo) [Example 26, (3aR,5R,6aR)-N-Benzyl-5-(((3S*,4S*)-3-methoxytetrahydro-2H-pyran-4-yl)amino)-3a-(3-(trifluoromethyl)-5,6,7,8-tetrahydro-1,6-naphthyridine-6-carbonyl)hexahydrocyclopenta-[c]pyrrole-2(1H)-carbothioamide]	200
COC1COCCC1N[C@@H]1C[C@H]2CN(C(=O)CN(C)C)C[C@@]2(C(=O)N2CCc3ncc(C(F)(F)F)cc3C2)C1 (relative stereo) [Example 76, 2-(Dimethylamino)-1-((3aR,5R,6aR)-5-(((3S*,4S*)-3-methoxytetrahydro-2H-pyran-4-yl)amino)-3a-(3-(trifluoromethyl)-5,6,7,8-tetrahydro-1,6-naphthyridine-6-carbonyl)hexahydrocyclopenta[c]pyrrol-2(1H)-yl)ethanone]	160
COC(=O)CN1C[C@@H]2C[C@@H](NC3CCOCC3OC)C[C@]2(C(=O)N2CCc3ncc(C(F)(F)F)cc3C2)C1 (relative stereo) [Example 107, Methyl 2-((3aR,5R,6aR)-5-(((3S*,4S*)-3-methoxytetrahydro-2H-pyran-4-yl)amino)-3a-(3-(trifluoromethyl)-5,6,7,8-tetrahydro-1,6-naphthyridine-6-carbonyl)hexahydrocyclopenta[c]pyrrol-2(1H)-yl)acetate]	1100
COC1COCCC1N[C@@H]1C[C@H]2CN(C(=O)CCN3CCOCC3)C[C@@]2(C(=O)N2CCc3ncc(C(F)(F)F)cc3C2)C1 (relative stereo) [Example 80, 1-((3aR,5R,6aR)-5-(((3S*,4S*)-3-Methoxytetrahydro-2H-pyran-4-yl)amino)-3a-(3-(trifluoromethyl)-5,6,7,8-tetrahydro-1,6-naphthyridine-6-carbonyl)hexahydrocyclopenta-[c]pyrrol-2(1H)-yl)-3-morpholinopropan-1-one]	230
COC1COCCC1N[C@@H]1C[C@H]2CN(C(C)C)C[C@@]2(C(=O)N2CCc3ncc(C(F)(F)F)cc3C2)C1 (relative stereo) [Example 96, ((3aR,5R,6aR)-2-Isopropyl-5-(((3S*,4S*)-3-methoxytetrahydro-2H-pyran-4-yl)amino)octahydrocyclopenta[c]pyrrol-3a-yl)(3-(trifluoromethyl)-7,8-dihydro-1,6-naphthyridin-6(5H)-yl)methanone]	1220
COC1COCCC1N[C@@H]1C[C@H]2CN(CCCc3ccccc3)C[C@@]2(C(=O)N2CCc3ncc(C(F)(F)F)cc3C2)C1 (relative stereo) [Example 103, ((3aR,5R,6aR)-5-(((3S*,4S*)-3-Methoxytetrahydro-2H-pyran-4-yl)amino)-2-(3-phenylpropyl)octahydrocyclopenta[c]pyrrol-3a-yl)(3-(trifluoromethyl)-7,8-dihydro-1,6-naphthyridin-6(5H)-yl)methanone]	1000
COC1COCCC1N[C@@H]1C[C@H]2CN(CCc3ccccc3)C[C@@]2(C(=O)N2CCc3ncc(C(F)(F)F)cc3C2)C1 (relative stereo) [Example 102, ((3aR,5R,6aR)-5-(((3S*,4S*)-3-Methoxytetrahydro-2H-pyran-4-yl)amino)-2-phenethyloctahydrocyclopenta[c]pyrrol-3a-yl)(3-(trifluoromethyl)-7,8-dihydro-1,6-naphthyridin-6(5H)-yl)methanone]	1000
COC1COCCC1N[C@@H]1C[C@H]2CN(S(=O)(=O)Cc3ccccc3)C[C@@]2(C(=O)N2CCc3ncc(C(F)(F)F)cc3C2)C1 (relative stereo) [Example 92, ((3aR,5R,6aR)-2-(Benzylsulfonyl)-5-(((3S*,4S*)-3-methoxytetrahydro-2H-pyran-4-yl)amino)octahydrocyclopenta[c]pyrrol-3a-yl)(3-(trifluoromethyl)-7,8-dihydro-1,6-naphthyridin-6(5H)-yl)methanone]	1100
C#CCOC(=O)N1C[C@@H]2C[C@@H](NC3CCOCC3OC)C[C@]2(C(=O)N2CCc3ncc(C(F)(F)F)cc3C2)C1 (relative stereo) [Example 53, (3aR,5R,6aR)-Prop-2-yn-1-yl 5-(((3S*,4S*)-3-methoxytetrahydro-2H-pyran-4-yl)amino)-3a-(3-(trifluoromethyl)-5,6,7,8-tetrahydro-1,6-naphthyridine-6-carbonyl)hexahydrocyclopenta[c]pyrrole-2(1H)-carboxylate]	200

Now those with a lower IC50, led by results:

IC50 [nM]	SMILES
50	COC(=O)N1C[C@@H]2C[C@@H](NC3CCOCC3OC)C[C@]2(C(=O)N2CCc3ncc(C(F)(F)F)cc3C2)C1 (relative stereo) [Example 34, (3aR,5R,6aR)-Methyl 5-(((3S*,4S*)-3-methoxytetrahydro-2H-pyran-4-yl)amino)-3a-(3-(trifluoromethyl)-5,6,7,8-tetrahydro-1,6-naphthyridine-6-carbonyl)hexahydrocyclopenta[c]pyrrole-2(1H)-carboxylate]
10	COC1COCCC1N[C@@H]1C[C@H]2CN(C(N)=O)C[C@@]2(C(=O)N2CCc3ccc(C(F)(F)F)cc3C2)C1 (relative stereo) [Example 6, (3aR,5R,6aR)-5-(((3S*,4S*)-3-Methoxytetrahydro-2H-pyran-4-yl)amino)-3a-(7-(trifluoromethyl)-1,2,3,4-tetrahydroisoquinoline-2-carbonyl)hexahydrocyclopenta-[c]pyrrole-2(1H)-carboxamide]
80	CNC(=O)N1C[C@@H]2C[C@@H](NC3CCOCC3OC)C[C@]2(C(=O)N2CCc3ncc(C(F)(F)F)cc3C2)C1 (relative stereo) [Example 13, (3aR,5R,6aR)-5-(((3S*,4S*)-(3-Methoxytetrahydro-2H-pyran-4-yl)amino)-N-methyl-3a-(3-(trifluoromethyl)-5,6,7,8-tetrahydro-1,6-naphthyridine-6-carbonyl)hexahydrocyclopenta-[c]pyrrole-2(1H)-carboxamide]
90	COC1COCCC1N[C@@H]1C[C@H]2CN(C(=O)C#CC3CC3)C[C@@]2(C(=O)N2CCc3ncc(C(F)(F)F)cc3C2)C1 (relative stereo) [Example 86, 3-Cyclopropyl-1-((3aR,5R,6aR)-5-(((3S*,4S*)-3-methoxytetrahydro-2H-pyran-4-yl)amino)-3a-(3-(trifluoromethyl)-5,6,7,8-tetrahydro-1,6-naphthyridine-6-carbonyl)hexahydro-cyclopenta[c]pyrrol-2(1H)-yl)prop-2-yn-1-one]
10	COCCOC(=O)N1C[C@@H]2C[C@@H](NC3CCOCC3OC)C[C@]2(C(=O)N2CCc3ccc(C(F)(F)F)cc3C2)C1 (relative stereo) [Example 49, (3aR,5R,6aR)-2-Methoxyethyl 5-(((3S*,4S*)-3-methoxytetrahydro-2H-pyran-4-yl)amino)-3a-(7-(trifluoromethyl)-1,2,3,4-tetrahydroisoquinoline-2-carbonyl)hexahydrocyclopenta[c]pyrrole-2(1H)-carboxylate]
120	COC1COCCC1N[C@@H]1C[C@H]2CN(c3ccccc3)C[C@@]2(C(=O)N2CCc3ncc(C(F)(F)F)cc3C2)C1 (relative stereo) [Example 108, ((3aR,5R,6aR)-5-(((3S*,4S*)-3-Methoxytetrahydro-2H-pyran-4-yl)amino)-2-phenyloctahydrocyclopenta[c]pyrrol-3a-yl)(3-(trifluoromethyl)-7,8-dihydro-1,6-naphthyridin-6(5H)-yl)methanone]
60	COC1COCCC1N[C@@H]1C[C@H]2CN(C(=O)NCc3ccccc3)C[C@@]2(C(=O)N2CCc3ncc(C(F)(F)F)cc3C2)C1 (relative stereo) [Example 17, (3aR,5R,6aR)-N-benzyl-5-(((3S*,4S*)-(3-methoxytetrahydro-2H-pyran-4-yl)amino)-3a-(3-(trifluoromethyl)-5,6,7,8-tetrahydro-1,6-naphthyridine-6-carbonyl)hexahydrocyclopenta-[c]pyrrole-2(1H)-carboxamide]
30	CNC(=S)N1C[C@@H]2C[C@@H](NC3CCOCC3OC)C[C@]2(C(=O)N2CCc3ncc(C(F)(F)F)cc3C2)C1 (relative stereo) [Example 27, (3aR,5R,6aR)-5-(((3S*,4S*)-3-Methoxytetrahydro-2H-pyran-4-yl)amino)-N-methyl-3a-(3-(trifluoromethyl)-5,6,7,8-tetrahydro-1,6-naphthyridine-6-carbonyl)hexahydrocyclopenta[c]pyrrole-2(1H)-carbothioamide]
